Here are results for 21 compounds from ChEMBL document CHEMBL1140199, “Synthesis and antimicrobial activity of 2-alkenylchroman-4-ones, 2-alkenylthiochroman-4-ones and 2-alkenylquinol-4-ones” (2008).

Assay type in all cases: functional
The subject of one experiment is Staphylococcus aureus. In words: Antimicrobial activity against Staphylococcus aureus ATCC 6538. As to conditions: for MIC: Staphylococcus aureus, ATCC 6538.
The next experiment has as its system Bacillus subtilis. Description: Antimicrobial activity against Bacillus subtilis ATCC 6051.
The test system of the next experiment is Candida maltosa. In words: Antimicrobial activity against Candida maltosa.
A further experiment has as its system Escherichia coli. Description: Antimicrobial activity against Escherichia coli ATCC 11229.

Converted amounts (≈) assume the structure as drawn. The source made the active and inactive calls. The rule behind the calls is not given here.

On to `C=CC1CC(=O)c2cc(Cl)ccc2O1` (stereo not given), for which the “inhibition zone (IZ)” value in the experiment with Staphylococcus aureus is given as 40 mm; in the experiment on Bacillus subtilis, 29 mm; in the experiment on Candida maltosa, 40 mm; in the experiment on Escherichia coli it was 17 mm. Moreover, the MIC came to 7.3 µg/mL (≈ 35 µM) against Staphylococcus aureus; 4.17 µg/mL (≈ 20 µM) in the experiment on Bacillus subtilis (Bacillus subtilis, ATCC 6051); 4.17 µg/mL (≈ 20 µM) with Escherichia coli (Escherichia coli, ATCC 11229).
`C=C(C)C1CC(=O)c2ccccc2S1` (stereo not given): the result in the experiment with Staphylococcus aureus, with Bacillus subtilis, in the experiment on Candida maltosa and with Escherichia coli was inactive.
Turning to `C=C(C)C1CC(=O)c2cc(Cl)ccc2O1` (stereo not given), the “inhibition zone (IZ)” value in the experiment with Staphylococcus aureus is on record as 17 mm; with Escherichia coli it was 9 mm. For the same compound, the result with Bacillus subtilis and in the experiment with Candida maltosa was inactive.
Consider NYSTATIN, for which the inhibition zone (IZ) with Candida maltosa stood at 28 mm.
For `C/C=C(\C)C1CC(=O)c2cc(Cl)ccc2O1` (stereo not given), the result with Staphylococcus aureus, with Bacillus subtilis, with Candida maltosa and with Escherichia coli was inactive.
As to `C=CC1CC(=O)c2ccccc2S1` (stereo not given), the outcome with Staphylococcus aureus, with Bacillus subtilis and in the experiment with Escherichia coli was inactive. Also, the “inhibition zone (IZ)” value with Candida maltosa was 6 mm.
On to `C/C=C(\C)C1CC(=O)c2cc(Br)ccc2O1` (stereo not given), for which the outcome with Staphylococcus aureus, in the experiment with Bacillus subtilis, with Candida maltosa and in the experiment with Escherichia coli was inactive.
`C=C(C)C1CC(=O)c2cc(Cl)ccc2N1C(=O)OC` (stereo not given): the outcome in the experiment on Staphylococcus aureus, with Bacillus subtilis, with Candida maltosa and in the experiment on Escherichia coli was inactive.
For the compound `C=CC1CC(=O)c2ccccc2O1` (stereo not given), the outcome in the experiment on Staphylococcus aureus, with Bacillus subtilis, in the experiment on Candida maltosa and in the experiment with Escherichia coli was inactive.
Regarding `C=CC1CC(=O)c2cc(Br)ccc2N1C(=O)OC` (stereo not given), the result with Staphylococcus aureus, in the experiment with Bacillus subtilis, in the experiment with Candida maltosa and in the experiment on Escherichia coli was inactive.
`C=C(C)C1CC(=O)c2ccccc2O1` (stereo not given): the result with Staphylococcus aureus, in the experiment on Bacillus subtilis and in the experiment with Candida maltosa was inactive. Further, the “inhibition zone (IZ)” value in the experiment with Escherichia coli was 10 mm.
In the case of `C=C(C)C1CC(=O)c2cc(Cl)ccc2S1` (stereo not given), the outcome in the experiment with Staphylococcus aureus, in the experiment with Bacillus subtilis, with Candida maltosa and with Escherichia coli was inactive.
`C=CC1CC(=O)c2cc(Br)ccc2O1` (stereo not given) had an MIC in the experiment on Staphylococcus aureus of 5.62 µg/mL (≈ 22.2 µM).
Turning to `C=CC1CC(=O)c2cc(F)ccc2N1C(=O)OC` (stereo not given), the result in the experiment on Staphylococcus aureus, with Bacillus subtilis, in the experiment on Candida maltosa and with Escherichia coli was inactive.
As for `C/C=C/C1CC(=O)c2cc(Br)ccc2O1` (stereo not given), the outcome in the experiment on Staphylococcus aureus, in the experiment on Bacillus subtilis and in the experiment on Candida maltosa was inactive. Further, in the experiment on Escherichia coli, the “inhibition zone (IZ)” value was found to be 9 mm.
Turning to `C=C(C)C1CC(=O)c2cc(Br)ccc2O1` (stereo not given), the “inhibition zone (IZ)” value in the experiment on Staphylococcus aureus came to 16 mm; in the experiment on Escherichia coli, 8 mm. The result in the experiment on Bacillus subtilis and in the experiment with Candida maltosa was inactive.
For `C=CC1CC(=O)c2cc(Cl)ccc2S1` (stereo not given), the outcome with Staphylococcus aureus, in the experiment with Bacillus subtilis and in the experiment with Escherichia coli was inactive. For the same compound, the “inhibition zone (IZ)” value with Candida maltosa was found to be 6 mm.
With `C=CC1CC(=O)c2cc(Cl)ccc2N1C(=O)OC` (stereo not given), the result in the experiment on Staphylococcus aureus, in the experiment on Bacillus subtilis, in the experiment on Candida maltosa and with Escherichia coli was inactive.
Regarding `C/C=C/C1CC(=O)c2cc(Cl)ccc2O1` (stereo not given), the outcome in the experiment with Staphylococcus aureus, in the experiment on Bacillus subtilis and with Candida maltosa was inactive. In addition, in the experiment with Escherichia coli, the “inhibition zone (IZ)” value is 10 mm.
Turning to `CC1(C)S[C@@H]2[C@H](NC(=O)[C@H](N)c3ccccc3)C(=O)N2[C@H]1C(=O)O` [AMPICILLIN], the figures for the “inhibition zone (IZ)” value in the experiment on Staphylococcus aureus, in the experiment on Bacillus subtilis and in the experiment with Escherichia coli were 27 mm, 25 mm and 19 mm, respectively.
Consider `C=CC1CC(=O)c2c(Cl)cc(Cl)cc2N1C(=O)OC` (stereo not given), for which the result in the experiment with Staphylococcus aureus, in the experiment on Bacillus subtilis, in the experiment on Candida maltosa and with Escherichia coli was inactive.
